From PubChem BioAssay AID977605 (Broad Institute, 2014)
Active and inactive are the calls of the source.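 Rule for the calls: active = fitted curve reaches 40% activation below the top valid tested dose, in every test run; inconclusive = test runs disagree on the call; inactive = the rest, including effects opposite to the expected direction.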

Assay: endothelial E-selectin upregulation by compounds – imaging, HUVEC, cherry-picked samples, dose response (AID 977605);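 note: signal is the share of imaged cells scored positive for E-selectin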
Details: HUVEC E-selectin immunostaining, at 19.5 µM (top of the series)

**Q.** For Cc1cccc(CN2CCCC(C(=O)c3ccc4c(c3)OCO4)C2)n1 (stereo not given), which activation is on record?
**A.** Its activation is 4.78% (inactive).

**Q.** For C=COCCn1c(C)c(C(C)=O)c2cc(O)ccc21, which activation is on record?
**A.** The activation was 0.265% (inactive).

Same assay, conditions: HUVEC E-selectin immunostaining, at 19.5 µM (top of the series), percent of TNF-alpha response over vehicle

**Q.** Which activation does the source give for C=CCN(C(=O)c1csnn1)C(C(=O)NC1CCCCC1)c1ccccc1 (stereo not given) here?
**A.** The activation was -0.215% (inactive).

**Q.** Which activation does the source give for COc1cccc(CNC(=O)CN2C(=O)COc3ccc(S(=O)(=O)N4CCCCCC4)cc32)c1 here?
**A.** Its activation is -0.081% (inactive).

**Q.** For CCCN(C)C[C@@H]1Oc2ncc(-c3ccccc3)cc2C(=O)N([C@H](C)CO)C[C@@H]1C, which activation is on record?
**A.** The activation was -0.269% (inactive).

**Q.** With COc1ccc(NC(=O)CCCn2c(=S)[nH]c3ccccc3c2=O)cc1 as the compound, how does the activation read?
**A.** Its activation is 1.61% (inactive).

**Q.** Which activation does the source give for C[C@H](CO)N1C[C@H](C)[C@@H](CN(C)S(=O)(=O)c2cn(C)cn2)Oc2ccc(N(C)C)cc2C1=O here?
**A.** Its activation is 0.037% (inactive).

**Q.** Which activation does the source give for Cc1noc(C)c1NC(=O)Nc1ccc2c(c1)CC(=O)N([C@H](C)CO)C[C@@H](C)[C@H](CN(C)C(=O)Nc1ccc(F)cc1)O2 here?
**A.** The activation was -0.18% (inactive).

**Q.** With COc1cccc(CCC(=O)N2CCC(n3nccc3NC(=O)CC(C)C)CC2)c1 as the compound, how does the activation read?
**A.** Its activation is -0.002% (inactive).

**Q.** For C[C@@H]1CN([C@@H](C)CO)C(=O)Cc2cc(NC(=O)c3ccncc3)ccc2O[C@@H]1CN(C)S(=O)(=O)c1cn(C)cn1, which activation is on record?
**A.** The activation was -0.153% (inactive).

**Q.** With COc1ccc(S(=O)(=O)Nc2ccc3c(c2)C(=O)N([C@@H](C)CO)C[C@@H](C)[C@@H](CN(C)C(=O)Nc2cccc4ccccc24)O3)cc1 as the compound, how does the activation read?
**A.** Its activation is -0.103% (inactive).

**Q.** Which activation does the source give for OC(COC(c1ccccc1)c1ccccc1)CN1CCOCC1 (stereo not given) here?
**A.** The activation was 2% (inactive).

**Q.** With CC(C)(C)c1ccc(C(=O)Nc2ccc3c(c2)C(=O)NC3=O)cc1 as the compound, how does the activation read?
**A.** Its activation is 0.042% (inactive).

**Q.** For Cc1noc(C)c1NC(=O)Nc1ccc2c(c1)CC(=O)N([C@@H](C)CO)C[C@H](C)[C@@H](CN(C)S(=O)(=O)c1ccccc1)O2, which activation is on record?
**A.** Its activation is -0.1% (inactive).

**Q.** With CC(C)(CN1CCCC1)NS(=O)(=O)c1ccc(Cl)cc1 as the compound, how does the activation read?
**A.** Its activation is -0.279% (inactive).

**Q.** For C[C@@H]1CN([C@@H](C)CO)C(=O)c2cccc(NC(=O)Nc3ccc4c(c3)OCO4)c2O[C@H]1CN(C)S(=O)(=O)c1ccc(F)cc1, which activation is on record?
**A.** Its activation is -0.076% (inactive).

**Q.** Which activation does the source give for O=S(=O)(Nc1cccc2[nH]ncc12)c1cccs1 here?
**A.** Its activation is -0.069% (inactive).

**Q.** For C[C@H]1CN([C@@H](C)CO)C(=O)Cc2cc(NS(=O)(=O)c3ccc(F)cc3)ccc2O[C@H]1CN(C)S(=O)(=O)c1ccc(Cl)cc1, which activation is on record?
**A.** Its activation is -0.018% (inactive).

**Q.** Which activation does the source give for C[C@H](CO)N1C[C@H](C)[C@@H](CN(C)Cc2ccc(Oc3ccccc3)cc2)Oc2ccc(NS(C)(=O)=O)cc2CC1=O here?
**A.** Its activation is 0.311% (inactive).

**Q.** For C[C@@H]1CN([C@H](C)CO)C(=O)c2cccc(NC(=O)C3CC3)c2O[C@@H]1CN(C)CC1CC1, which activation is on record?
**A.** Its activation is -0.106% (inactive).

**Q.** Which activation does the source give for C[C@@H]1CN([C@@H](C)CO)C(=O)c2cc(NC(=O)Nc3ccc(C(F)(F)F)cc3)ccc2O[C@H]1CN(C)S(=O)(=O)c1ccccc1 here?
**A.** The activation was -0.17% (inactive).

**Q.** Which activation does the source give for COC(=O)c1cc(S(=O)(=O)NCC2CCN(CCc3cccs3)CC2)c[nH]1 here?
**A.** The activation was 0.021% (inactive).

**Q.** For C[C@H]1CN([C@@H](C)CO)C(=O)Cc2cc(NS(=O)(=O)c3ccc(F)cc3)ccc2O[C@@H]1CN(C)S(=O)(=O)c1ccc(Cl)cc1, which activation is on record?
**A.** Its activation is -0.047% (inactive).

**Q.** For C[C@H]1CN([C@@H](C)CO)C(=O)Cc2cc(NC(=O)Nc3cccc4ccccc34)ccc2O[C@@H]1CN(C)C(=O)Nc1ccc(C(F)(F)F)cc1, which activation is on record?
**A.** The activation was 14.8% (inactive).

**Q.** Which activation does the source give for Cc1noc(C)c1NC(=O)N(C)C[C@H]1Oc2ccc(NS(=O)(=O)c3cccs3)cc2C(=O)N([C@H](C)CO)C[C@@H]1C here?
**A.** The activation was 3.28% (inactive).

**Q.** With C[C@H](CO)N1C[C@H](C)[C@@H](CN(C)Cc2ccc(C(F)(F)F)cc2)Oc2ccc(N(C)C)cc2CC1=O as the compound, how does the activation read?
**A.** Its activation is 0.906% (inactive).

**Q.** For CCN(CC)c1ccc(S(=O)(=O)N2CCOCC2)cc1NC(=O)CN1C(=O)NC2(CCCC2)C1=O, which activation is on record?
**A.** Its activation is 4.54% (inactive).

**Q.** With COc1ccc([C@H]2CC(=O)C[C@@H](CCn3nnc4ccccc43)O2)cc1 as the compound, how does the activation read?
**A.** Its activation is 0.021% (inactive).

**Q.** Which activation does the source give for CC(C)CCNC(=O)c1cn(C)c2ccc(S(=O)(=O)N3CCCC3)cc2c1=O here?
**A.** Its activation is -0.129% (inactive).

**Q.** Which activation does the source give for COc1ccc(S(=O)(=O)Nc2cccc3c2O[C@H](CN(C)C(=O)Nc2c(C)noc2C)[C@H](C)CN([C@H](C)CO)C3=O)cc1 here?
**A.** Its activation is -0.109% (inactive).

**Q.** Which activation does the source give for O=C(c1cncc(Br)c1)N1CCN(S(=O)(=O)c2ccccc2C(F)(F)F)CC1 here?
**A.** Its activation is -0.01% (inactive).

**Q.** For CCC(=O)N(C)C[C@H]1Oc2ncc(Br)cc2C(=O)N([C@@H](C)CO)C[C@@H]1C, which activation is on record?
**A.** The activation was 0.243% (inactive).

**Q.** For C[C@@H]1CN([C@@H](C)CO)C(=O)c2cccc(NC(=O)C3CCOCC3)c2O[C@@H]1CN(C)Cc1ccncc1, which activation is on record?
**A.** The activation was 0.913% (inactive).

**Q.** With C[C@H](CO)N1C[C@H](C)[C@@H](CN(C)C)Oc2ccc(NC(=O)CCCN(C)C)cc2CC1=O as the compound, how does the activation read?
**A.** The activation was -0.172% (inactive).

**Q.** For C[C@@H]1CN([C@@H](C)CO)C(=O)c2cccc(NC(=O)Nc3ccccc3)c2O[C@H]1CN(C)S(=O)(=O)c1ccccc1, which activation is on record?
**A.** Its activation is 0.91% (inactive).
